Where only a bound is given, the exact number is not on record here.

Experimental findings from ChEMBL document CHEMBL3259563, “The discovery of potent and selective non-steroidal glucocorticoid receptor modulators, suitable for inhalation” (Bioorg Med Chem Lett, 2014) are described below.

In data set [1] the target is T1, Glucocorticoid receptor (Rattus norvegicus, UniProt P06536).
T1 sequence (P06536 whole entry): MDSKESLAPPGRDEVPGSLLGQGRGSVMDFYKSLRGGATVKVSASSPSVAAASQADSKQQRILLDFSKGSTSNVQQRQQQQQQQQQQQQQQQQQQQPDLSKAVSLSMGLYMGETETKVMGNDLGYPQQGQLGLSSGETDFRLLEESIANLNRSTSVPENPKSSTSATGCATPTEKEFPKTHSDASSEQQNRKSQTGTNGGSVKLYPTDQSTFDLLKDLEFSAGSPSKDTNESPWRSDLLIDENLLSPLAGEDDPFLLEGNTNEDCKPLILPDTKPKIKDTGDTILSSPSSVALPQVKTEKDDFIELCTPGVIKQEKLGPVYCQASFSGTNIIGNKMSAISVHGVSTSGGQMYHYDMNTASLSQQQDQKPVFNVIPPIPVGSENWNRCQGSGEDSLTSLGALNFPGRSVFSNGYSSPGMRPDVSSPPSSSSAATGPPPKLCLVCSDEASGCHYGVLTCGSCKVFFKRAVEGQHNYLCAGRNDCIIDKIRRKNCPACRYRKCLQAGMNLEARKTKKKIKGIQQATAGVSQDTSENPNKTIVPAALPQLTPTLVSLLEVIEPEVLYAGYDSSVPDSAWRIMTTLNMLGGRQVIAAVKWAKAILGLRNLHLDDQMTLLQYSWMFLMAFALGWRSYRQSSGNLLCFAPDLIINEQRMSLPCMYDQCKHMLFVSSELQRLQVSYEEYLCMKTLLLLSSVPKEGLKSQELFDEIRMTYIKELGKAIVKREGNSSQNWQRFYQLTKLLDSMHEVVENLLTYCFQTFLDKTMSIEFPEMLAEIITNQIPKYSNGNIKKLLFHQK
The data set can be described thus: Agonist activity at glucocorticoid receptor in rat PBMC assessed as inhibition of LPS-stimulated TNF-alpha release.

In data set [2] the target is T2, Glucocorticoid receptor (Homo sapiens, UniProt P04150).
T2 sequence (P04150 whole entry): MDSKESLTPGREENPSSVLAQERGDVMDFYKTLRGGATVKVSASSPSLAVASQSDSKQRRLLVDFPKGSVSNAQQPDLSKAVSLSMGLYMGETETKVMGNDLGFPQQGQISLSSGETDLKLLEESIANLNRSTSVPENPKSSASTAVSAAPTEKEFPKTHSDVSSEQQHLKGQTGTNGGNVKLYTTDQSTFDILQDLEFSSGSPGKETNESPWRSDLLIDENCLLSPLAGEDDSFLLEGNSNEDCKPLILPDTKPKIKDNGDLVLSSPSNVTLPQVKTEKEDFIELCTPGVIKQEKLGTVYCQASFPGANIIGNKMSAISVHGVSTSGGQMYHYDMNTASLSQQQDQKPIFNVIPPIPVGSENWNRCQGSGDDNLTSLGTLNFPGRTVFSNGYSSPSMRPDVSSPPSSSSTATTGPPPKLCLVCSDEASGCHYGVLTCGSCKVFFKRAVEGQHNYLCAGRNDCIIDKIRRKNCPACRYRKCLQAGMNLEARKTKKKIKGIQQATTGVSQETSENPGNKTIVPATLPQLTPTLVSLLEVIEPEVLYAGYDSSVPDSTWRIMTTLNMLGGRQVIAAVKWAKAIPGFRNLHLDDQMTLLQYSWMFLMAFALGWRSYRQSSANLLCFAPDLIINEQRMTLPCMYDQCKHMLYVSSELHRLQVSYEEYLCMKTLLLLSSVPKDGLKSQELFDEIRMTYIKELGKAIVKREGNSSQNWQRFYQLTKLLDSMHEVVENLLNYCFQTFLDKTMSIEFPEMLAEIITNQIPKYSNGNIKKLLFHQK
Description: Agonist activity at glucocorticoid receptor in human PBMC assessed as inhibition of LPS-stimulated TNF-alpha release

Data set [3] can be described thus: Intrinsic clearance in rat microsomes. It is filed as ADME, Microsome.
Another data set deals with T3, Progesterone receptor (Homo sapiens, UniProt P06401).
T3 sequence (P06401 whole entry): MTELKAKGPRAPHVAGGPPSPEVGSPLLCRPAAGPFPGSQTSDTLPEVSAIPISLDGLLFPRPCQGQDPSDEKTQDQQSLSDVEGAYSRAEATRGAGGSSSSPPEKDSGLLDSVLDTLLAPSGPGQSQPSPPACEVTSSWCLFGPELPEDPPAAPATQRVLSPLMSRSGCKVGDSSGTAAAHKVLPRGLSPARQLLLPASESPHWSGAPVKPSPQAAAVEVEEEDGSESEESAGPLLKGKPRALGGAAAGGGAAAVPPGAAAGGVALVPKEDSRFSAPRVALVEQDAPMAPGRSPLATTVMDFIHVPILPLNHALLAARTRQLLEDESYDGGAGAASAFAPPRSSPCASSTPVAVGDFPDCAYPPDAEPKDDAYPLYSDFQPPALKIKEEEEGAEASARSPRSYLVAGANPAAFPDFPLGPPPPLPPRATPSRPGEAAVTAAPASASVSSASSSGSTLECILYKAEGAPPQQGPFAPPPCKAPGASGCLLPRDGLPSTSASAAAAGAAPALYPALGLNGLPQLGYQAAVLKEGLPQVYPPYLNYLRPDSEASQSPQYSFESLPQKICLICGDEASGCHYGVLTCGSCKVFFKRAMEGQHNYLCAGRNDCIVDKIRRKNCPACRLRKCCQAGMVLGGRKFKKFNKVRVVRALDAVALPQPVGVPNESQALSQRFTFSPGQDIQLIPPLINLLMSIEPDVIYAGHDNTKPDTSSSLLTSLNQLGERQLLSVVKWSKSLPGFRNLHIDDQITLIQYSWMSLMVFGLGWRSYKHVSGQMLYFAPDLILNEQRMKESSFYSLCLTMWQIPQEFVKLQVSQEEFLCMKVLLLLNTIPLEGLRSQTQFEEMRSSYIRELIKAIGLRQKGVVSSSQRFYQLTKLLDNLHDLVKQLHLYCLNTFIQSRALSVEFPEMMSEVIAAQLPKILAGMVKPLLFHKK
The experiment in a line: Binding affinity to progesterone receptor (unknown origin).

In the next data set the target is T4, Cytochrome P450 1A2 (Homo sapiens, UniProt P05177).
T4 sequence (P05177 whole entry): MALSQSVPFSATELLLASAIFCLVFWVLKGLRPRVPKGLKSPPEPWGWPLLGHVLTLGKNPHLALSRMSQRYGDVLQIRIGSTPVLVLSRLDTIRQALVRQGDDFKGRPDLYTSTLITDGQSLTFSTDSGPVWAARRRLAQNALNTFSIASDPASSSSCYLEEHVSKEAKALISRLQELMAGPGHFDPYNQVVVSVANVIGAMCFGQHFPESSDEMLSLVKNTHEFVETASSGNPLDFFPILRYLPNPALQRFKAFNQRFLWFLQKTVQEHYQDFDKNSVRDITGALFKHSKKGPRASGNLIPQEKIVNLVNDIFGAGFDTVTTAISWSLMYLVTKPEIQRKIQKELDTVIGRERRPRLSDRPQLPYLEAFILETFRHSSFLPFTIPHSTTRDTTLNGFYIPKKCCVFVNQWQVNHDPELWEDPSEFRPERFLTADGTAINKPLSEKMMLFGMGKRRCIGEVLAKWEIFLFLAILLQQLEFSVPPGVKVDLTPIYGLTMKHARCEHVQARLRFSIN
The data set can be described thus: Inhibition of CYP1A2 (unknown origin). The class given is ADME.

As to `Cc1nn(C2CCCC2)c(C)c1S(=O)(=O)N[C@@H](C)CNc1cccc2c1cnn2-c1ccc(F)nc1`, the IC50 on Glucocorticoid receptor [1] was 4.5 nM; at Glucocorticoid receptor [2] it was 14 nM; at Progesterone receptor, 4500 nM; at Cytochrome P450 1A2 it was more than 20000 nM. Also, the microsomal CLint in data set [3] was more than 200 µL/min/mg.
